In patent US20160193240A1, “Ulmoside-A: Useful For Prevention Or Cure Of Metabolic Diseases” (COUNCIL OF SCIENTIFIC & INDUSTRIAL RESEARCH, priority 2013, published 2016):
Marks after values point to notes of the source that are not given here.

Experiments:
[1] = tested on: C2C12 myotubes; assay: Fatty acid oxidation (14CO2 release from 14C palmitate) in C2C12 myotubes; assay type: cell-based, mouse; conditions: 10 nM
Description: B. ULMA enhances fatty acid oxidation in C2C12 myotubes. C2C12 myotubes plated in 12 well plates were treated with vehicle (0.1% vol/vol DMSO) or 10 nM ULMA in DMSO (final concentration of DMSO in all wells 0.1% for 2 h, 24 h or 48 h. Data represent mean±SEM of three independent experiments performed in triplicates. Following treatment, ^14CO2 release from these cells was measured and plotted. *p<0.05, **p<0.01, ***p<0.001 as determined by two tailed unpaired student's t-test.
D. siAdipoR1 eliminates ULMA induction of fatty acid oxidation. C2C12 myotubes were transfected with nonsilencing siC or siAdipoR1. 72 h after transfection, cells were treated for 24 h with 10 nM ULMA and fatty acid oxidation experiments were performed. Data is mean±SEM of three independent experiments performed in triplicates. **p<0.01 as determined by two tailed unpaired student's t-test.
Adiponectin is known to enhance glucose uptake and fatty acid oxidation in skeletal muscle and myotubes (T. Kadowaki, T. Yamauchi, N. Kubota, K. Hara, K. Ueki, K. Tobe. J Clin Invest. 116(7): 1784-1792. 2006; T. Yamauchi, J. Kamon, Y. Ito, A. Tsuchida, T. Yokomizok, S. Kita, T. Sugiyama, M. Miyagishi, K. Hara, M. Tsunodaq, K. Murakamiq, T. Ohteki, S. Uchida, S. Takekawa, H. Waki, N. H. Tsuno, Y. Shibata, Y. Terauchi, P. Froguel, K. Tobe, S. Koyasu, K. Taira, T. Kitamura, T. Shimizuk, R. Nagai, T. Kadowaki. Nature. 423(6941):762-769. 2003). […] Subsequently, the cells were lysed in 100 μl 0.5N NaOH and 5 μl lysate was used for protein concentration determination, and rest of the lysate was used to measure cellular radioactivity in a beta-counter (Beckman Coulter). […] Radioactivity that had become adsorbed onto the filter discs was then quantified by liquid scintillation counting in a beta-counter (Beckman Coulter). The cells were lysed with 200 μl 0.5N NaOH and 5 μl of the lysate was used for protein estimation using Bradford assay and the radioactivity was normalized with the protein content.

[2] = tested on: wistar rats; assay: Dexamethasone induced loss of body weight and death in rats; conditions: for Final body weight (g) / Survival/group (%): 2 weeks
Description: All animal experiments were conducted in accordance with current legislation on animal experiments [Institutional Animal Ethical Committee (IAEC)] at C.D.R.I. In all animal experiments, rats were individually housed at 21° C., in 12-h light:12-h dark cycles. All animals had access to normal chow diet and water ad libitum.
(§1) Food intake was measured daily and the rats were weighed each week. The rats were fasted overnight (O/N) on day 14th and on day 15th oral glucose tolerance test was performed. Following oral glucose tolerance test (OGTT), rats were kept with food and water ad libitum for one day. On day 16th, rats were fasted again O/N and then euthanized. At autopsy, from 5 animals/group, tissues were collected and snap frozen in liquid nitrogen. Blood was collected from cardiac punctures. Plasma was separated from whole blood by centrifugation at 3000 rpm for 20 min immediately after collection of blood and stored at −80° C. until further analysis. […] (quadriceps) skeletal muscles were processed for RNA and protein extraction, followed by quantitative real-time PCR (QRT-PCR) analysis. Two animals from each group were used for photography post autopsy.

[3] = tested on: wistar rats; assay: Dexamethasone-mediated reduction in serum osteocalcin in rats (ELISA); assay type: in vivo, rat; conditions: Dex + ULMA, 14 days
Description: as §1

[4] = tested on: db/db mice; assay: Body weight of db/db mice; assay type: in vivo, mouse; conditions: 5 mg/kg ULMA for 15 d
Description: 8 week old db/db mice were treated with vehicle (V; 1% gum acacia) or with 5 mg/kg ULMA for 15 days and the body weights were measured on 0th, 7th, 10th, or 15th day of treatment and plotted. ** p<0.01, n=6.
(§2) 8 week old female db/db mice (n=6) weighing 40-50 g were divided into 2 groups and maintained as above. Control groups received vehicle (1% gum acacia) and ULMA groups received 5 mg/kg bw ULMA in 1% gum acacia for […]. Body weight and blood glucose were measured at the beginning and end of the studies.

[5] = tested on: db/db mice; assay: Random (fed) blood glucose in db/db mice; assay type: in vivo, mouse; conditions: 5 mg/kg ULMA for 15 d
Description: 8 week old db/db mice were treated with vehicle (V; 1% gum acacia) or with 5 mg/kg ULMA for 15 days and the fed blood glucose was measured by a glucometer (Gluco Dr. Super sensor; that is capable of measuring 10-900 mg/dl glucose) ** p<0.01, ***p<0.005, n=6.
as §2

[6] = tested on: rats; conditions: cited from earlier work

Compound: O=C1c2c(cc(O)c([C@@H]3O[C@H](CO)[C@@H](O)[C@H](O)[C@H]3O)c2O)O[C@@H](c2ccc(O)c(O)c2)[C@@H]1O [ULMA, (2S,3S)-(+)-3′,4′,5,7-tetrahydroxydihydroflavonol-6-C-β-D-glucopyranoside]
- time of treatment at which induction of fatty acid oxidation was visible [1]: ≤ 2 h
- fatty acid oxidation ([1]; 2 h, 24 h or 48 h, increased with time): robustly induced
- ULMA-induced fatty acid oxidation with siAdipoR1 (not siC) ([1]; 24 h, 72 h after siRNA transfection): completely eliminated
- Final body weight (g) ([2]; Dex + ULMA-1 mg): 176.5 ± 5.9^c g
- Survival/group (%) ([2]; Dex + ULMA-1 mg): 73.3%
- Final body weight (g) ([2]; Dex + ULMA-5 mg): 192.7 ± 3.8^b,c g
- Survival/group (%) ([2]; Dex + ULMA-5 mg): 100%
- change in body weight in control animals ([2]; rat, in vivo): did not cause any significant change
- Osteocalcin (ng/ml) [3]: 387.7 ± 16.1^a ng/ml
- body weight compared to vehicle treated control mice [4]: significantly reduced body weight
- fed blood glucose in comparison to vehicle treated control mice [5]: significantly reduced fed blood glucose
- effect on ovariectomy-induced osteoporosis [6]: mitigated ovariectomy-induced osteoporosis
